These results are taken from US20260297042A1, “BIARYLAMIDE DERIVATIVES AND THEIR USE AS PKMYT1 INHIBITORS” (CANCER RESEARCH TECHNOLOGY LIMITED, priority 2023, published 2026).

pIC50: −log10 of the molar value.

One test has as its target T1, Human PKMYT1 (Homo sapiens, UniProt Q99640).
T1 construct: Human PKMYT1 75-362 was cloned as a TEV cleavable 6xHis fusion; 6xHis (TEV cleavable) (cleaved yes); made in house; host or cells: bacterial cells
T1 sequence (Q99640 75-362): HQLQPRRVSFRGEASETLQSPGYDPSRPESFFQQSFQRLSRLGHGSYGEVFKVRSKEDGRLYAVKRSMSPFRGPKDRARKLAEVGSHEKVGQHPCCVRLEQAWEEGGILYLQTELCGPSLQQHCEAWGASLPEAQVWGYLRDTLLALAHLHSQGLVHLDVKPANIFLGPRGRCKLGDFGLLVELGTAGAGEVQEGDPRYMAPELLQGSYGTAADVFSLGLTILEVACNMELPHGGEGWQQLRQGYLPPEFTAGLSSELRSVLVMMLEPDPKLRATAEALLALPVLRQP
The test can be described thus: PKMYT1 biochemical ADP-Glo enzymatic assay. The note with it: ADP-Glo. In a few lines:
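Compounds were titrated over 10 points (3-fold steps), then 15 nM purified PKMYT1 kinase domain (aa 75-362) and 500 µM ATP were added in pH 7.5 HEPES buffer. After 60 min at 26 °C, remaining ATP was depleted and ADP converted to luminescence for IC50 fitting.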
On the technique in general: ADP-Glo turns the ADP formed in a reaction into a luminescent signal.

The next test has as its target T2, WEE1 (Homo sapiens, UniProt P30291).
T2 construct: purchased Thermo Fisher PR7373A
The test is described as follows: Selectivity versus WEE1 assay (ADP-Glo enzymatic assay). Type of test: biochemical. The note with it: for pIC50: ADP-Glo; for PKMYT1 vs. WEE1 selectivity: fold difference in selectivity for PKMYT1 over WEE1. The procedure, abridged: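 Compounds were pre-dispensed, enzyme (15 nM final) was added in pH 7.5 HEPES buffer, and ATP ([…]) then started a 60 min incubation at 26° C. Afterwards ADP-Glo reagents were added in turn and luminescence was measured to derive IC50 values.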

[1] abbreviates: 15 nM PKMYT1 kinase domain, 500 µM ATP, 60 minutes at 26° C., banded.
Setting [2] is: 15 nM WEE1, 60 minutes at 26° C., banded.
Setting [3] is: banded, ">N" = at least in this band but could be higher.
The mark [4] stands for this setting: PKMYT1 kinase domain 15 nM, banded values.

T2 sequence (P30291 whole entry): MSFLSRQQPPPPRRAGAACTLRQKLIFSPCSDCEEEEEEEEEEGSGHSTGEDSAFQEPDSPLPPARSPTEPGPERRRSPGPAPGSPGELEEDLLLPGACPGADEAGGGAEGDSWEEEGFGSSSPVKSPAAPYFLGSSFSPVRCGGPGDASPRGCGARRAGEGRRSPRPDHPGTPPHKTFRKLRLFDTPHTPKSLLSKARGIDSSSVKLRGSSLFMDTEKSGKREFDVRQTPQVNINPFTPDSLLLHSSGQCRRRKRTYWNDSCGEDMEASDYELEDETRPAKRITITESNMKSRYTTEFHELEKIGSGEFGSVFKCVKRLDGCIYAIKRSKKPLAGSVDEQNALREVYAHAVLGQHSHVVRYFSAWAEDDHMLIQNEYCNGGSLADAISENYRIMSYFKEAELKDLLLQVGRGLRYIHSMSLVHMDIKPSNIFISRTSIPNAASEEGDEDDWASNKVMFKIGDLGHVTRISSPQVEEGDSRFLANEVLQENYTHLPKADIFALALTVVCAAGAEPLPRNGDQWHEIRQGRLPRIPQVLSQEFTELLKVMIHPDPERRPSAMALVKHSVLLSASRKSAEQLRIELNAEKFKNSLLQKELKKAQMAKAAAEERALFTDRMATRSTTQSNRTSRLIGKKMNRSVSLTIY

The pIC50 is −log10 of the IC50, conventionally taken in molar units. In the case of `Cc1ccc(O)c(C)c1NC(=O)c1cnc(Nc2ccn(CC(=O)N3C[C@H]4C[C@@H]3CN4)n2)s1` [BAA-223, 2-((1-(2-((1R,4R)-2,5-diazabicyclo[2.2.1]heptan-2-yl)-2-oxoethyl)-1H-pyrazol-3-yl)amino)-N-(3-hydroxy-2,6-dimethylphenyl)thiazole-5-carboxamide], the pIC50 against Human PKMYT1 (setting [1]) was above 7.30; at WEE1 (setting [2]) it was below 4.96. Moreover, the “PKMYT1 vs. WEE1 selectivity” value on WEE1 (setting [3]) is given as “X (100-<1000 fold)”.
On to `Cc1ccc(O)c(C)c1NC(=O)c1cnc(Nc2cc(C)n(CC(C)O)n2)s1` (stereo not drawn) [BAA-540, N-(3-hydroxy-2,6-dimethylphenyl)-2-((1-(2-hydroxypropyl)-5-methyl-1H-pyrazol-3-yl)amino)thiazole-5-carboxamide], for which the pIC50 is above 7.30 against Human PKMYT1 (setting [4]) and 4.96 to 6.00 against WEE1 (WEE1 15 nM, banded values). Moreover, the “PKMYT1 vs. WEE1 selectivity” value at WEE1 (banded) is “X (100-<1000 fold)”.
For `COc1ccc(CNc2ncc(C(=O)Nc3c(C)ccc(O)c3C)s2)cc1` [BAA-352, N-(3-hydroxy-2,6-dimethylphenyl)-2-((4-methoxybenzyl)amino)thiazole-5-carboxamide], the pIC50 at Human PKMYT1 (setting [1]) is 6.00 to 7.30; at WEE1 (setting [2]), below 4.96. Moreover, on WEE1 (setting [3]), the “PKMYT1 vs. WEE1 selectivity” value was “X (100-<1000 fold)”.
Consider `CCOC(=O)c1cc(Nc2ncc(C(=O)Nc3c(C)ccc(O)c3C)s2)nn1C` [BAA-024], for which the pIC50 is above 7.30 against Human PKMYT1 (setting [1]) and 4.96 to 6.00 against WEE1 (setting [2]). At WEE1 (setting [3]), the “PKMYT1 vs. WEE1 selectivity” value was “X (100-<1000 fold)”.
Take `Cn1ccc(Nc2ncc(C(=O)Nc3c(Cl)ccc(O)c3F)s2)n1` [BAA-479, N-(6-Chloro-2-fluoro-3-hydroxyphenyl)-2-((1-methyl-1H-pyrazol-3-yl)amino)thiazole-5-carboxamide]: the pIC50 was 6.00 to 7.30 against Human PKMYT1 (setting [4]) and below 4.96 on WEE1 (WEE1 15 nM, banded values). Further, at WEE1 (banded), the “PKMYT1 vs. WEE1 selectivity” value is “W (10-<100 fold)”.
The matching figures for `Cc1ccc(O)c(C)c1NC(=O)c1cnc(Nc2nc(C(F)(F)F)co2)s1` [BAA-438, N-(3-hydroxy-2,6-dimethylphenyl)-2-((4-(trifluoromethyl)oxazol-2-yl)amino) thiazole-5-carboxamide]: 4.96 to 6.00, below 4.96 and “W (10-<100 fold)”.
In the same order, the values of `Cc1cn(-c2cnn(CCO)c2)nc1Nc1ncc(C(=O)Nc2c(C)ccc(O)c2C)s1` [BAA-395, N-(3-hydroxy-2,6-dimethylphenyl)-2-((1′-(2-hydroxyethyl)-4-methyl-1′H-[1,4′-bipyrazol]-3-yl)amino)thiazole-5-carboxamide] are above 7.30, 4.96 to 6.00 and “X (100-<1000 fold)”.
For the compound `COCCn1ccc(Nc2ncc(C(=O)Nc3c(C)ccc(O)c3C)s2)n1` [BAA-040], the values for the pIC50 against Human PKMYT1 (setting [1]) and against WEE1 (setting [2]) were 6.00 to 7.30 and below 4.96, respectively. The “PKMYT1 vs. WEE1 selectivity” value at WEE1 (setting [3]) is on record as “X (100-<1000 fold)”.
As for `COC(=O)CCC(=O)N1CC[C@@H](n2ccc(Nc3ncc(C(=O)Nc4c(C)ccc(O)c4C)s3)n2)C1` [BAA-091], the pIC50 is 6.00 to 7.30 on Human PKMYT1 (setting [1]) and below 4.96 against WEE1 (setting [2]). For the same compound, the “PKMYT1 vs. WEE1 selectivity” value on WEE1 (setting [3]) was “>X (100-<1000 fold)”.
Take `Cc1ccc(O)c(C)c1NC(=O)c1cnc(NCC2CCN(C(=O)OC(C)(C)C)CC2)s1` [BAA-066]: the values for the pIC50 at Human PKMYT1 (setting [1]) and against WEE1 (setting [2]) were 6.00 to 7.30 and below 4.96, respectively. Also, the “PKMYT1 vs. WEE1 selectivity” value at WEE1 (setting [3]) is “>X (100-<1000 fold)”.
As to `Cc1ccc(O)c(C)c1NC(=O)c1cnc(Nc2cccc(S(C)(=O)=O)c2)s1` [BAA-276, N-(3-hydroxy-2,6-dimethylphenyl)-2-((3-(methylsulfonyl)phenyl)amino)thiazole-5-carboxamide], the values for the pIC50 against Human PKMYT1 (setting [1]) and on WEE1 (setting [2]) were above 7.30 and below 4.96, respectively. At WEE1 (setting [3]), the “PKMYT1 vs. WEE1 selectivity” value is reported as “Y (1000-5000 fold)”.
Take `Cc1cc(Nc2ncc(C(=O)Nc3c(C)ccc(O)c3C)s2)n(C)n1` [BAA-127, 2-[(2,5-dimethylpyrazol-3-yl)amino]-N-(3-hydroxy-2,6-dimethyl-phenyl)thiazole-5-carboxamide]: the pIC50 is above 7.30 against Human PKMYT1 (setting [1]) and below 4.96 on WEE1 (setting [2]). Also, at WEE1 (setting [3]), the “PKMYT1 vs. WEE1 selectivity” value was “Y (1000-5000 fold)”.
As to `Cc1ccc(O)c(C)c1NC(=O)c1cnc(Nc2ccc(Nc3ccc(F)cc3)cn2)s1` [BAA-310, 2-((5-((4-fluorophenyl)amino)pyridin-2-yl)amino)-N-(3-hydroxy-2,6-dimethylphenyl)thiazole-5-carboxamide], the pIC50 at Human PKMYT1 (setting [1]) was 6.00 to 7.30; on WEE1 (setting [2]), below 4.96. Besides, on WEE1 (setting [3]), the “PKMYT1 vs. WEE1 selectivity” value is “X (100-<1000 fold)”.
Regarding `Cc1ccc(O)c(C)c1NC(=O)c1cnc(NCc2ccccn2)s1` [BAA-349, N-(3-hydroxy-2,6-dimethylphenyl)-2-((pyridin-2-ylmethyl)amino) thiazole-5-carboxamide], the pIC50 is 6.00 to 7.30 against Human PKMYT1 (setting [1]) and below 4.96 against WEE1 (setting [2]). In addition, the “PKMYT1 vs. WEE1 selectivity” value at WEE1 (setting [3]) was “X (100-<1000 fold)”.
Turning to `Cc1ccc(O)c(C)c1NC(=O)c1cnc(Nc2ccn([C@@H]3CCN(C(=O)NC4CC4)C3)n2)s1` [BAA-110, 2-[[1-[(3R)-1-(Cyclopropylcarbamoyl)pyrrolidin-3-yl]pyrazol-3-yl]amino]-N-(3-hydroxy-2.6-dimethyl-phenyl)thiazole-5-carboxamide], the values for the pIC50 at Human PKMYT1 (setting [1]) and at WEE1 (setting [2]) were 6.00 to 7.30 and below 4.96, respectively. Moreover, the “PKMYT1 vs. WEE1 selectivity” value at WEE1 (setting [3]) is “>X (100-<1000 fold)”.
As for `Cc1ccc(O)c(C)c1NC(=O)c1cnc(Nc2ccc3c(c2)NC(=O)CO3)s1` [BAA-515, N-(3-hydroxy-2,6-dimethylphenyl)-2-((3-oxo-3,4-dihydro-2H-benzo[b][1,4]oxazin-6-yl)amino)thiazole-5-carboxamide], the pIC50 against Human PKMYT1 (setting [4]) was above 7.30; against WEE1 (WEE1 15 nM, banded values), 4.96 to 6.00. At WEE1 (banded), the “PKMYT1 vs. WEE1 selectivity” value is “X (100-<1000 fold)”.
As to `Cc1ccc(O)c(C)c1NC(=O)c1cnc(Nc2ccn([C@@H]3CCN(C(=O)Cc4ccccc4)C3)n2)s1` [BAA-083], the pIC50 on Human PKMYT1 (setting [1]) is 6.00 to 7.30; at WEE1 (setting [2]), below 4.96. Also, the “PKMYT1 vs. WEE1 selectivity” value on WEE1 (setting [3]) is listed as “>Y (1000-5000 fold)”.
For the compound `Cc1ccc(O)c(C)c1NC(=O)c1cnc(Nc2ccn(C3CCCCC3)n2)s1` [BAA-015, 2-[(1-cyclohexylpyrazol-3-yl)amino]-N-(3-hydroxy-2,6-dimethyl-phenyl)thiazole-5-carboxamide], the pIC50 was above 7.30 against Human PKMYT1 (setting [1]) and 4.96 to 6.00 at WEE1 (setting [2]). Further, the “PKMYT1 vs. WEE1 selectivity” value at WEE1 (setting [3]) is on record as “X (100-<1000 fold)”.
Consider `Cc1ccc(O)c(C)c1NC(=O)c1cnc(Nc2ccn(CC(=O)N3CCC[C@H](O)C3)n2)s1` [BAA-163], for which the pIC50 at Human PKMYT1 (setting [1]) is above 7.30; against WEE1 (setting [2]), below 4.96. Also, the “PKMYT1 vs. WEE1 selectivity” value on WEE1 (setting [3]) is reported as “Y (1000-5000 fold)”.
Turning to `Cc1ccc(O)c(C)c1NC(=O)c1cnc(Nc2ccn(CC(=O)N3CC4C(C3)C4(F)F)n2)s1` (stereo not drawn) [BAA-194], the pIC50 against Human PKMYT1 (setting [1]) is above 7.30; at WEE1 (setting [2]), below 4.96. The “PKMYT1 vs. WEE1 selectivity” value on WEE1 (setting [3]) is on record as “Y (1000-5000 fold)”.
In the same order, the values of `Cc1ccc(O)c(C)c1NC(=O)c1cnc(Nc2ccc3cc(Br)cnc3n2)s1` [BAA-298, 2-((6-bromo-1,8-naphthyridin-2-yl)amino)-N-(3-hydroxy-2,6-dimethylphenyl)thiazole-5-carboxamide] are 6.00 to 7.30, below 4.96 and “Y (1000-5000 fold)”.
For the compound `Cc1ccc(O)c(C)c1NC(=O)c1cnc(Nc2ccn(C3CCNCC3)n2)s1` [BAA-055], the pIC50 was 6.00 to 7.30 against Human PKMYT1 (setting [1]) and below 4.96 at WEE1 (setting [2]). Moreover, the “PKMYT1 vs. WEE1 selectivity” value at WEE1 (setting [3]) was “>X (100-<1000 fold)”.
In the same order, the values of `Cc1ccc(O)c(C)c1NC(=O)c1cnc(Nc2ccn(CC(=O)N3CCN(C4CCCC4)CC3)n2)s1` [BAA-186] are above 7.30, below 4.96 and “Y (1000-5000 fold)”.
Turning to `Cc1ccc(O)c(C)c1NC(=O)c1cnc(Nc2ccn(CC(=O)NC3CCCC3)n2)s1` [BAA-192], the results for the pIC50 against Human PKMYT1 (setting [1]) and against WEE1 (setting [2]) were above 7.30 and below 4.96, respectively. Further, on WEE1 (setting [3]), the “PKMYT1 vs. WEE1 selectivity” value is “Y (1000-5000 fold)”.
In the case of `Cc1ccc(O)c(C)c1NC(=O)c1cnc(NC2CCN(S(C)(=O)=O)CC2)s1` [BAA-067, N-(3-hydroxy-2,6-dimethyl-phenyl)-2-[(1-methylsulfonyl-4-piperidyl)amino]thiazole-5-carboxamide], the values for the pIC50 at Human PKMYT1 (setting [1]) and on WEE1 (setting [2]) were 4.96 to 6.00 and below 4.96, respectively. At WEE1 (setting [3]), the “PKMYT1 vs. WEE1 selectivity” value is on record as “>W (10-<100 fold)”.
In the same order, the values of `Cc1ccc(O)c(C)c1NC(=O)c1cnc(Nc2ccn(CC(=O)N3CC4(CCC4)C3)n2)s1` [BAA-199] are above 7.30, 4.96 to 6.00 and “Y (1000-5000 fold)”.
